Test results: publication PMC6011181, “The Mechanism of Acetyl Transfer Catalyzed by Mycobacterium tuberculosis GlmU” (Biochemistry, 2018)
Like-named read-outs stand apart in the source and are kept apart here.

Tests used:
GlmU [1] = target: T1, GlmU (Mycobacterium tuberculosis, UniProt P9WMN3); assay: biochemical; assay type: binding
GlmU [2] = target: T1, GlmU; assay: acetyltransferase inhibition assay; assay type: biochemical
GlmU [3] = target: T1, GlmU; assay: acetyltransferase dead-end inhibition, initial velocities versus Ac-CoA; assay type: biochemical; conditions: read-out: Kis
GlmU [4] = target: T1, GlmU; assay: biochemical; conditions: read-out: Kis
GlmU [5] = target: T1, GlmU; assay: acetyltransferase DTP absorbance assay (CoA-SH release); assay type: biochemical
GlmU [6] = target: T1, GlmU; assay: acetyltransferase dead-end inhibition, initial velocities versus GlcN-1P; assay type: biochemical; conditions: read-out: Kis
GlmU [7] = target: T1, GlmU; assay type: biochemical
His374 = His374 (UniProt position 374, GTKVPHLTYVG); assay: kinetics; conditions: 30 °C (stated for the acetyltransferase assay; not restated for the pH-rate studies); constant-ionic-strength three-component buffer (value not stated); 10 mM MgCl2; Vmax conditions (enzyme saturated with Ac-CoA and GlcN-1P), Mg2+ present
[8] = system: O=c1ccn([C@@H]2O[C@H](COP(=O)(O)OP(=O)(O)OP(=O)(O)O)[C@@H](O)[C@H]2O)c(=O)[nH]1; assay: purified protein; conditions: co-substrate GlcNAc-1P saturating, pH 7.5, 30 °C, 10 mM MgCl2, uridylyltransferase site
[9] = system: N[C@H]1[C@@H](OP(=O)(O)O)O[C@H](CO)[C@@H](O)[C@@H]1O; assay: purified protein; conditions: co-substrate Ac-CoA saturating, pH 7.5, 30 °C, 10 mM MgCl2
[10] = system: N[C@H]1[C@@H](OP(=O)(O)OP(=O)(O)OC[C@H]2O[C@@H](n3ccc(=O)[nH]c3=O)[C@H](O)[C@@H]2O)O[C@H](CO)[C@@H](O)[C@@H]1O; assay: purified protein; conditions: co-substrate Ac-CoA saturating, pH 7.5, 30 °C, 10 mM MgCl2, acetyltransferase site
[11] = system: CC(=O)N[C@H]1[C@@H](OP(=O)(O)O)O[C@H](CO)[C@@H](O)[C@@H]1O; assay: purified protein; conditions: co-substrate UTP saturating, pH 7.5, 30 °C, 10 mM MgCl2, uridylyltransferase site
[12] = system: CC(=O)SCCNC(=O)CCNC(=O)[C@H](O)C(C)(C)COP(=O)(O)OP(=O)(O)OC[C@H]1O[C@@H](n2cnc3c(N)ncnc32)[C@H](O)[C@@H]1OP(=O)(O)O; assay: purified protein; conditions: co-substrate GlcN-1P saturating, pH 7.5, 30 °C, 10 mM MgCl2
[13] = Km concentrations of Ac-CoA and GlcN-1P, pH 7.5, 30 °C, 10 mM MgCl2, acetyltransferase site, read-out: no inhibition at ≤10 mM

T1 sequence (P9WMN3 whole entry, looked up): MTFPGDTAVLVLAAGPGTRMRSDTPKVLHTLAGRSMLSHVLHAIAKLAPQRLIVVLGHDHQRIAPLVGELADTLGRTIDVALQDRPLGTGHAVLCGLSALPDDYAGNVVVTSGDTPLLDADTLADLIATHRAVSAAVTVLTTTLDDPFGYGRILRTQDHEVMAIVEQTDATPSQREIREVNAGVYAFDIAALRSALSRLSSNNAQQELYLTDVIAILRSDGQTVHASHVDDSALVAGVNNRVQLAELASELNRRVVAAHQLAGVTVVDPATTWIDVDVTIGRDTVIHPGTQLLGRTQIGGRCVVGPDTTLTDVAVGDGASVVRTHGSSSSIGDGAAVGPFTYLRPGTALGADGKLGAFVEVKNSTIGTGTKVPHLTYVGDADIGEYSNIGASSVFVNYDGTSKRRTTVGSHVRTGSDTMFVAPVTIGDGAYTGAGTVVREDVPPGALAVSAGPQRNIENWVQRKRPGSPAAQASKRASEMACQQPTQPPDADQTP

Compound: CC(=O)SCCNC(=O)CCNC(=O)[C@H](O)C(C)(C)COP(=O)(O)OP(=O)(O)OC[C@H]1O[C@@H](n2cnc3c(N)ncnc32)[C@H](O)[C@@H]1OP(=O)(O)O [Ac-CoA]
- Kd (GlmU [1]; read-out: Kd (μM) ^b): 250 ± 25 µM

Compound: CCCC(=O)SCCNC(=O)CCNC(=O)[C@H](O)C(C)(C)COP(=O)(O)OP(=O)(O)OC[C@H]1O[C@@H](n2cnc3c(N)ncnc32)[C@H](O)[C@@H]1OP(=O)(O)O [Bu-CoA]
- IC50 (GlmU [2]; read-out: IC50 (mM) ^b, ^c): 1 ± 0.03 mM
- Ki (GlmU [3]): 350 ± 30 µM
- Kd (GlmU [1]; read-out: Kd (mM) ^c): 3800 ± 800 µM

Compound: CC(C)(COP(=O)(O)OP(=O)(O)OC[C@H]1O[C@@H](n2cnc3c(N)ncnc32)[C@H](O)[C@@H]1OP(=O)(O)O)[C@@H](O)C(=O)NCCC(=O)NCCS [CoA-SH]
- Ki (GlmU [4]): 150 ± 15 µM
- IC50 (GlmU [5]): 0.3 ± 0.01 mM
- Kd (GlmU [1]; read-out: Kd (mM) ^c): 700 ± 130 µM

Compound: C/C=C/C(=O)SCCNC(=O)CCNC(=O)[C@H](O)C(C)(C)COP(=O)(O)OP(=O)(O)OC[C@H]1O[C@@H](n2cnc3c(N)ncnc32)[C@H](O)[C@@H]1OP(=O)(O)O [Cro-CoA]
- IC50 (GlmU [2]; read-out: IC50 (mM) ^b, ^c): 1 ± 0.15 mM

Compound: O=P(O)(O)O[C@H]1O[C@H](CO)[C@@H](O)[C@H](O)[C@H]1O [Glc-1P]
- IC50 (GlmU [2]; read-out: IC50 (mM) ^b, ^c): 5 ± 0.65 mM
- Ki (GlmU [6]): 4100 ± 600 µM
- Kd (GlmU [1]; read-out: Kd): 1700 ± 400 µM

Compound: N[C@H]1[C@@H](OP(=O)(O)O)O[C@H](CO)[C@@H](O)[C@@H]1O [GlcN-1P]
- Kd (GlmU [7]): in the presence of high concentrations of the second substrate, the Kd values for the complex

Compound: N[C@H]1C(O)O[C@H](COP(=O)(O)O)[C@@H](O)[C@@H]1O (stereo partly shown) [GlcN-6P]
- IC50 (GlmU [2]; Km concentrations of Ac-CoA and GlcN-1P, pH 7.5, 30 °C, 10 mM MgCl2, read-out: IC50 (mM) ^b, ^c): 10 ± 0.89 mM

Compound: CC(C)C(=O)SCCNC(=O)CCNC(=O)[C@H](O)C(C)(C)COP(=O)(O)OP(=O)(O)OC[C@H]1O[C@@H](n2cnc3c(N)ncnc32)[C@H](O)[C@@H]1OP(=O)(O)O [IsoBu-CoA]
- IC50 (GlmU [2]; read-out: IC50 (mM) ^b, ^c): 2 ± 0.21 mM

Compound: CC(C)(COP(=O)(O)OP(=O)(O)OC[C@H]1O[C@@H](n2cnc3c(N)ncnc32)[C@H](O)[C@@H]1OP(=O)(O)O)[C@@H](O)C(=O)NCCC(=O)NCCSC(=O)CC(=O)O [Mlo-CoA]
- IC50 (GlmU [2]; read-out: IC50 (mM) ^b, ^c): 2 ± 0.59 mM

Compound: CC(=O)N[C@H]1C(O)O[C@H](CO)[C@H](O)[C@@H]1O (stereo partly shown) [N-acetyl-galactosamine]
- IC50 (GlmU [2]; [13]): > 10 mM

Compound: CC(=O)N[C@@H]1C(O)O[C@H](CO)[C@@H](O)[C@@H]1O (stereo partly shown) [N-acetyl-mannosamine]
- IC50 (GlmU [2]; [13]): > 10 mM

Compound: CCC(=O)SCCNC(=O)CCNC(=O)[C@H](O)C(C)(C)COP(=O)(O)OP(=O)(O)OC[C@H]1O[C@@H](n2cnc3c(N)ncnc32)[C@H](O)[C@@H]1OP(=O)(O)O [Pro-CoA]
- Kd (GlmU [1]; read-out: Kd (μM) ^b): 500 ± 100 µM

Compound: O=P(O)(O)OC[C@H]1OC(O)[C@H](O)[C@@H](O)[C@@H]1O (stereo partly shown) [glucose 6-phosphate]
- IC50 (GlmU [2]; [13]): > 10 mM

Compound: O=P(O)(O)O[C@H]1O[C@H](CO)[C@@H](O)[C@H](O)[C@@H]1O [mannose 1-phosphate]
- IC50 (GlmU [2]; read-out: no inhibition at ≤10 mM): > 10 mM

Compound: O=P(O)(O)OC[C@H]1OC(O)[C@@H](O)[C@@H](O)[C@@H]1O (stereo partly shown) [mannose 6-phosphate]
- IC50 (GlmU [2]; [13]): > 10 mM

Compound: Bifunctional N-acetyltransferase/uridylyltransferase GlmU (Mycobacterium tuberculosis H37Rv)
- pKa (His374): 6.7 ± 0.1

Compound: GlmU (Mycobacterium tuberculosis H37Rv)
- Km [8]: 8 ± 0.8 µM
- kcat [8]: 120 ± 3 s⁻¹
- kcat/Km [8]: 1.5e+07 ± 3.8e+06 M⁻¹ s⁻¹
- Km [9]: 290 ± 31 µM
- Km [10]: 9700 ± 600 µM
- kcat [10]: 2.04 ± 0.06 s⁻¹
- kcat/Km [10]: 220 ± 170 M⁻¹ s⁻¹
- Km [11]: 30 ± 5 µM
- Km [12]: 250 ± 8 µM
